Results from patent US20060205682A1, “Antibiotic and combinations of antibiotic and symptomatic relief agent formulations” (priority 2005, published 2006).
Values after ≈ are worked out from the molar mass of the structure shown.

Assay: physchem
Conditions: pH 8, aqueous buffer, thermodynamic from solid
Procedure: A 5 ml aliquot of 5% potassium phosphate buffer is added to 500 mg of gamma-cyclodextrin and sonicated until a clear solution is formed. […] The process is repeated with two additional amounts of gamma-cyclodextrin. Known aliquots of each solution are placed in a 2 cm cell and analyzed using a UV-Vis Spectrophotomer between the wavelengths 200-400 nm.

solubility thermodynamic at 30 min: 350 µg/mL (≈ 1210 µM)
Compound: COc1cc(Cc2cnc(N)nc2N)cc(OC)c1OC [trimethoprim]
